Test results taken from ChEMBL document CHEMBL4819019, “Design, synthesis, antibacterial activity and toxicity of novel quaternary ammonium compounds based on pyridoxine and fatty acids” (Eur J Med Chem, 2021).
Activity calls are given as the source filed them. The rule behind the calls is not given here.

What was measured:
[1] = system: Escherichia coli; test: Antibacterial activity against clinical isolate Escherichia coli 718 measured after 24 hrs by broth microdilution method; format: functional
[2] = system: Staphylococcus intermedius; test: Antibacterial activity against clinical isolate methicillin-resistant Staphylococcus intermedius 1143 measured after 24 hrs by broth microdilution method; format: functional
[3] = system: Klebsiella pneumoniae; test: Antibacterial activity against clinical isolate Klebsiella pneumoniae 1813 measured after 24 hrs by broth microdilution method; format: functional
[4] = Genotoxicity in Salmonella typhimurium TA1537 assessed as number of revertant by Ames spot test relative to solvent control; format: toxicity; settings: salmonella enterica subsp. enterica serovar typhimurium
[5] = system: Escherichia coli; test: Antibacterial activity against Escherichia coli assessed as fold increase in MIC after 4 passages by serial dilution method; format: functional, organism-based; settings: time 24.0 hrs
[6] = Antibiofilm activity against biofilm-embedded Staphylococcus aureus/Pseudomonas aeruginosa assessed as reduction in viable cells upto 512 mg/L measured after 24 hrs by drop plate based dual species biofilm assay; format: functional, cell-based; settings: dose mg/L <=512, time 24.0 hrs
[7] = system: Bacillus subtilis; test: Antibacterial activity against Bacillus subtilis 168 measured after 24 hrs by broth microdilution method; format: functional
[8] = Genotoxicity in Salmonella typhimurium TA1535/pSK1002 assessed as DNA-damage activity by measuring beta-galactosidase activity at 750 ug/ml measured by SOS-chromotest relative to solvent control; format: toxicity; settings: salmonella enterica subsp. enterica serovar typhimurium; dose 750 µg/ml
[9] = system: Enterococcus faecalis; test: Antibacterial activity against clinical isolate Enterococcus faecalis 3063 measured after 24 hrs by broth microdilution method; format: functional
[10] = system: Staphylococcus aureus; test: Antibacterial activity against Staphylococcus aureus ATCC 29213 measured after 24 hrs by broth microdilution method; format: functional
[11] = system: Pseudomonas sp.; test: Antibacterial activity against clinical isolate Pseudomonas sp. 5 measured after 24 hrs by broth microdilution method; format: functional
[12] = system: Staphylococcus aureus; test: Antibacterial activity against clinical isolate methicillin-resistant Staphylococcus aureus 1053 measured after 24 hrs by broth microdilution method; format: functional
[13] = system: Staphylococcus aureus; test: Antibacterial activity against Staphylococcus aureus assessed as fold increase in MIC after 8 passages by serial dilution method; format: functional, organism-based; settings: time 24.0 hrs
[14] = system: Micrococcus luteus; test: Antibacterial activity against Micrococcus luteus clinical isolate measured after 24 hrs by broth microdilution method; format: functional
[15] = system: Staphylococcus aureus; test: Antibacterial activity against clinical isolate methicillin-resistant Staphylococcus aureus 1131 measured after 24 hrs by broth microdilution method; format: functional
[16] = system: Pseudomonas aeruginosa; test: Antibiofilm activity against biofilm-embedded Pseudomonas aeruginosa assessed as reduction in log CFU at 1 to 32 times of MBC measured after 24 hrs by drop plate assay; format: functional, organism-based
[17] = Acute toxicity in C57BL/6CBA mouse assessed as pale liver at 2000 mg/kg, po after 7 days; format: organism-based; settings: in vivo, 168 h, time 7 day
[18] = system: Klebsiella sp.; test: Antibacterial activity against clinical isolate Klebsiella sp. 11 measured after 24 hrs by broth microdilution method; format: functional
[19] = Genotoxicity in Salmonella typhimurium TA98 assessed as number of revertant by Ames spot test relative to solvent control; format: toxicity; settings: salmonella enterica subsp. enterica serovar typhimurium
[20] = system: Serratia marcescens; test: Antibacterial activity against clinical isolate Serratia marcescens 1966 measured after 24 hrs by broth microdilution method; format: functional
[21] = Cytotoxicity against human mesenchymal stem cells assessed as cell viability measured after 72 hrs by MTT assay; format: cell-based
[22] = Genotoxicity in Salmonella typhimurium TA1535/pSK1002 assessed as DNA-damage activity by measuring beta-galactosidase activity at 15 ug/ml measured by SOS-chromotest relative to solvent control; format: toxicity; settings: salmonella enterica subsp. enterica serovar typhimurium; dose 15 µg/ml
[23] = system: Cell membrane; test: Induction of cell membrane damage in Staphylococcus aureus assessed as decrease in flourescence measured for 35 mins with 5 min interval by DioC2(3) based flourescence method
[24] = system: Enterococcus faecalis; test: Antibacterial activity against clinical isolate Enterococcus faecalis 23 measured after 24 hrs by broth microdilution method; format: functional
[25] = system: Staphylococcus aureus; test: Antibacterial activity against clinical isolate methicillin-resistant Staphylococcus aureus 983 measured after 24 hrs by broth microdilution method; format: functional
[26] = system: Acinetobacter sp.; test: Antibacterial activity against clinical isolate Acinetobacter sp. 3 measured after 24 hrs by broth microdilution method; format: functional
[27] = system: Cell membrane; test: Induction of cell membrane damage in Escherichia coli assessed as decrease in flourescence measured for 35 mins with 5 min interval by DioC2(3) based flourescence method
[28] = Lipophilicity, logP of the compound; format: physicochemical; settings: octanol/water
[29] = Genotoxicity in Salmonella typhimurium TA1535/pSK1002 assessed as DNA-damage activity by measuring beta-galactosidase activity at 150 ug/ml measured by SOS-chromotest relative to solvent control; format: toxicity; settings: salmonella enterica subsp. enterica serovar typhimurium; dose 150 µg/ml
[30] = system: Proteus sp.; test: Antibacterial activity against clinical isolate Proteus sp. 17 measured after 24 hrs by broth microdilution method; format: functional; settings: Proteus sp. (in: enterobacteria)
[31] = Genotoxicity in Salmonella typhimurium TA1535 assessed as number of revertant by Ames spot test relative to solvent control; format: toxicity; settings: salmonella enterica subsp. enterica serovar typhimurium
[32] = system: Moraxella; test: Antibacterial activity against clinical isolate Moraxella 765 measured after 24 hrs by broth microdilution method; format: functional
[33] = system: Micrococcus luteus; test: Antibiofilm activity against biofilm-embedded Micrococcus luteus assessed as reduction in log CFU at 1 to 32 times of MBC measured after 24 hrs by drop plate assay; format: functional, organism-based
[34] = Acute toxicity in topically treated C57BL/6CBA mouse measured upto 14 days; settings: in vivo, topical or ocular, time <=14 day
[35] = Cytotoxicity against human skin fibroblasts assessed as cell viability measured after 72 hrs by MTT assay; format: cell-based, Fibroblast
[36] = Acute toxicity in topically treated C57BL/6CBA mouse assessed as death measured at 2500 mg/kg treated as single topically measured after 14 days; format: organism-based; settings: in vivo, topical_or_ocular, 336 h, time 14 day
[37] = system: Escherichia coli; test: Antibacterial activity against Escherichia coli MG 1655 measured after 24 hrs by broth microdilution method; format: functional
[38] = system: Staphylococcus aureus; test: Antibiofilm activity against biofilm-embedded Staphylococcus aureus assessed as reduction in log CFU at 1 to 32 times of MBC measured after 24 hrs by drop plate assay; format: functional, organism-based
[39] = Acute toxicity in C57BL/6CBA mouse assessed as death at 2000 mg/kg, po after 7 days; format: organism-based; settings: in vivo, 168 h, time 7 day
[40] = Acute toxicity in C57BL/6CBA mouse assessed as enlarged spleen at 2000 mg/kg, po after 7 days; format: organism-based; settings: in vivo, 168 h, time 7 day
[41] = Genotoxicity in Salmonella typhimurium TA100 assessed as number of revertant by Ames spot test relative to solvent control; format: toxicity; settings: salmonella enterica subsp. enterica serovar typhimurium
[42] = system: Staphylococcus aureus; test: Antibacterial activity against clinical isolate methicillin-resistant Staphylococcus aureus 713 measured after 24 hrs by broth microdilution method; format: functional
[43] = Cytotoxicity against human HEK293 cells assessed as cell viability measured after 72 hrs by MTT assay; format: cell-based
[44] = system: Staphylococcus aureus; test: Antibacterial activity against clinical isolate methicillin-resistant Staphylococcus aureus 1065 measured after 24 hrs by broth microdilution method; format: functional
[45] = system: Pseudomonas aeruginosa; test: Antibacterial activity against Pseudomonas aeruginosa ATCC 27853 measured after 24 hrs by broth microdilution method; format: functional
[46] = Acute toxicity in po dosed C57BL/6CBA mouse measured upto 7 days; format: organism-based; settings: in vivo, time <=7 day
[47] = system: Staphylococcus aureus; test: Antibacterial activity against clinical isolate Staphylococcus aureus 25 measured after 24 hrs by broth microdilution method; format: functional
[48] = system: Staphylococcus intermedius; test: Antibacterial activity against clinical isolate methicillin-resistant Staphylococcus intermedius 1061 measured after 24 hrs by broth microdilution method; format: functional
[49] = system: Staphylococcus ureilyticus; test: Antibacterial activity against clinical isolate Staphylococcus ureilyticus 1972 measured after 24 hrs by broth microdilution method; format: functional
[50] = Acute toxicity in C57BL/6CBA mouse assessed as pale kidneys at 2000 mg/kg, po after 7 days; format: organism-based; settings: in vivo, 168 h, time 7 day
[51] = system: Escherichia coli; test: Antibiofilm activity against biofilm-embedded Escherichia coli assessed as reduction in log CFU at 1 to 32 times of MBC measured after 24 hrs by drop plate assay; format: functional, organism-based
[52] = Antibiofilm activity against biofilm-embedded Staphylococcus aureus/Escherichia coli assessed as reduction in viable cells upto 512 mg/L measured after 24 hrs by drop plate based dual species biofilm assay; format: functional, cell-based; settings: dose mg/L <=512, time 24.0 hrs
[53] = Genotoxicity in Salmonella typhimurium TA1535/pSK1002 assessed as DNA-damage activity by measuring beta-galactosidase activity at 7.5 ug/ml measured by SOS-chromotest relative to solvent control; format: toxicity; settings: salmonella enterica subsp. enterica serovar typhimurium; dose 7.5 µg/ml
[54] = Genotoxicity in Salmonella typhimurium TA1535/pSK1002 assessed as DNA-damage activity by measuring beta-galactosidase activity at 75 ug/ml measured by SOS-chromotest relative to solvent control; format: toxicity; settings: salmonella enterica subsp. enterica serovar typhimurium; dose 75 µg/ml
[55] = system: Pseudomonas aeruginosa; test: Antibacterial activity against clinical isolate Pseudomonas aeruginosa 1945 measured after 24 hrs by broth microdilution method; format: functional
[56] = Acute toxicity in C57BL/6CBA mouse assessed as necropsy measured at 2500 mg/kg treated as single topically measured after 14 days; format: organism-based; settings: in vivo, topical_or_ocular, 336 h, time 14 day

CCCCCCCCCCCC(=O)NCC[N+](C)(C)Cc1cnc(C)c2c1COC(C)(CCC)O2.[Cl-] (stereo unspecified)
MIC [1]: 8 µg/mL
MIC [2]: 4 µg/mL
MIC [3]: 16 µg/mL
Ratio [4]: 0.03
Activity [5]: Toxic
Activity [6]: inactive
MIC [7]: 2 µg/mL
Ratio [8]: 0.3
MIC [9]: 2 µg/mL
MIC [10]: 1 µg/mL
MIC [11]: 32 µg/mL
MIC [12]: 2 µg/mL
Activity [13]: Active
MIC [14]: 2 µg/mL
MIC [15]: 4 µg/mL
Activity [16]: Active
Activity [17]: Toxic
MIC [18]: 16 µg/mL
Ratio [19]: 1.9
MIC [20]: 64 µg/mL
CC50 at 72 h [21]: 1.15 µg/mL
Ratio [22]: 1.6
Activity [23]: Dose-Dependent Effect
MIC [24]: 2 µg/mL
MIC [25]: 16 µg/mL
MIC [26]: 32 µg/mL
Activity [27]: Dose-Dependent Effect
logP [28]: 1.35
Ratio [29]: 0.5
MIC [30]: > 64 µg/mL
Ratio [31]: 0.5
MIC [32]: 16 µg/mL
Activity [33]: Active
LD50 at 336 h [34]: > 2500 mg/kg
CC50 at 72 h [35]: 1.79 µg/mL
Activity [36]: Non-Toxic
MIC [37]: 4 µg/mL
Activity [38]: Active
Activity [39]: Toxic
Activity [40]: Toxic
Ratio [41]: 1.1
MIC [42]: 4 µg/mL
CC50 at 72 h [43]: 0.15 µg/mL
MIC [44]: 2 µg/mL
MIC [45]: 32 µg/mL
LD50 at 168 h [46]: > 2000 mg/kg
MIC [47]: 2 µg/mL
MIC [48]: 4 µg/mL
MIC [49]: 64 µg/mL
Activity [50]: Toxic
Activity [51]: Active
Activity [52]: inactive
Ratio [53]: 1.6
Ratio [54]: 0.7
MIC [55]: 64 µg/mL
Activity [56]: Non-Toxic
